Structures can show the parent of a compound that is named as a salt.

The target of the assay is Bcl-xL/BAK (Homo sapiens, UniProt Q07817+Q16611). Kind of assay: Inhibition of Bcl-xL (1 to 206, delta 45 to 84)-BAK (unknown origin) protein interaction by fluorescence polarization assay.
Sequence of Bcl-xL/BAK (Q07817 whole entry): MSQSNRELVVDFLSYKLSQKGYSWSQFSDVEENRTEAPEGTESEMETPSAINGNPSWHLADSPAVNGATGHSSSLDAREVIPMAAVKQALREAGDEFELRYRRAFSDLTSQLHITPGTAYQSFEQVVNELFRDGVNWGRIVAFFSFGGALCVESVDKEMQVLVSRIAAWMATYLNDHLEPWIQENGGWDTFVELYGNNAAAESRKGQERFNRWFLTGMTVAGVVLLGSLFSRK
Sequence of Bcl-xL/BAK (Q16611 whole entry): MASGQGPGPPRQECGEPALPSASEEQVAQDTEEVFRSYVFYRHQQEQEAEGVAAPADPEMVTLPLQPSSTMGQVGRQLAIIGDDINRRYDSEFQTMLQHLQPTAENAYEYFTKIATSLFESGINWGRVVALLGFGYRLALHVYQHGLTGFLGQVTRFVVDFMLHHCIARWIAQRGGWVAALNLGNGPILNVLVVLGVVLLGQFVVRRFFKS
`CCCC[C@H](CC)CNC(=N)NC(=N)NCCCCCCNC(=N)NC(=N)NC[C@@H](CC)CCCC` displayed an IC50 of 25.7 µM.
Then `CCCC[C@@H](CC)CNC(=N)NC(=N)NCCCCCCNC(=N)NC(=N)NC[C@H](CC)CCCC`, with 21.3 µM; and `CCCCC(CC)CNC(=N)NC(=N)NCCCCCCNC(=N)NC(=N)NCC(CC)CCCC` (mixture of isomers) [ALEXIDINE DIHYDROCHLORIDE], with 18.3 µM.

What is called IC50 is the concentration needed to halve the response being measured. Read a high IC50 as weaker potency in that assay.

The values above are taken from ChEMBL document CHEMBL3091420, “Synthesis and biochemical evaluation of highly enantiomerically pure (R,R)- and (S,S)-alexidine” (Bioorg Med Chem, 2013).
